Structures can show the parent of a compound that is named as a salt.
Columns and labels:
[1] = biological target: T1, fibrinogen receptor (GpIIb/IIIa) (Homo sapiens, UniProt P05106+P08514); test: Human blood platelet fibrinogen binding test; details: inhibition of binding of 125I labelled human fibrinogen to human blood platelet suspension; ADP final concentration 10 µM
T1 construct: gel filtration using Sepharose 2B column to give a blood platelet suspension; endogenous in cells; host or cells: human blood platelets (gel-filtered, from platelet rich plasma of a healthy donor)
Method: The precipitate was suspended in a Tyrode's solution (20% fetal bovine serum, 2 mM Mg^2+), followed by gel filtration using Sepharose 2B column to give a blood platelet suspension (1 x 10^9/ml) apart from fibrinogen. […] The binding inhibition rate of the test drug was then calculated.

[2] = system: Blood platelet aggregation; test: Inhibition test of human in vitro platelet aggregation (ADP-induced); assay type: cell-based
Method: The blood platelet counts of PRP were adjusted to (50 to 60) x 10^4/µl by diluting with PPP.
Blood platelet aggregation was determined according to the method of Born G.V.R., [Nature, vol. […] That is, a solution of the compound of Formula (I) as a test drug in dimethyl sulfoxide was adjust to the desired concentration with a physiological saline solution. 25 µl of the solution was added to 250 µl of PRP and incubated at 37°C for 3 minutes, and 25 µl of ADP (final concentration : 7 µM) was added thereto.

T1 sequence (P08514 32-887 limits assumed): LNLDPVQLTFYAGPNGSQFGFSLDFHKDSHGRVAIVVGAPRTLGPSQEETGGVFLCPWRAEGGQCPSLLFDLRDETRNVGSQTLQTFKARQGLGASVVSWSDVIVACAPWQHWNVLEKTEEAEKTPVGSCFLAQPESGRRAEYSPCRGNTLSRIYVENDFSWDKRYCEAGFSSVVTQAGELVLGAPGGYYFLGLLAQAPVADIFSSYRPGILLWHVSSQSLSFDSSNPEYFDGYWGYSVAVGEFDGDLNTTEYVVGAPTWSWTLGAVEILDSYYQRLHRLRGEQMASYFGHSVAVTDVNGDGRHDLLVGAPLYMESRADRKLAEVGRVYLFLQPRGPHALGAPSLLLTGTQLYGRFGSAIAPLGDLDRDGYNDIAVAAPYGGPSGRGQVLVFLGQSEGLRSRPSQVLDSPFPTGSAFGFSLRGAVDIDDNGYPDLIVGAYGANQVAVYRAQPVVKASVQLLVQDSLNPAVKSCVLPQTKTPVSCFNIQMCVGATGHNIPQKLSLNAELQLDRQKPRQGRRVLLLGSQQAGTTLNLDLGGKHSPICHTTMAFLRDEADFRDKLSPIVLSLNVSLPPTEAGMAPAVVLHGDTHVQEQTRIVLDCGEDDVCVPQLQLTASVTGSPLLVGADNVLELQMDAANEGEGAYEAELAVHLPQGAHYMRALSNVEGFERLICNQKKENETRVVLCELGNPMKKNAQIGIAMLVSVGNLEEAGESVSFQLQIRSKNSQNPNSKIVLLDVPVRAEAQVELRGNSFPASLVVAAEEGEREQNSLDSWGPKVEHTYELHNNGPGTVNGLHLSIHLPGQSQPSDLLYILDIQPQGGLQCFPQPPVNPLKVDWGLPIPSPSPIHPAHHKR
T1 sequence (P08514 891-1039 partner limits assumed): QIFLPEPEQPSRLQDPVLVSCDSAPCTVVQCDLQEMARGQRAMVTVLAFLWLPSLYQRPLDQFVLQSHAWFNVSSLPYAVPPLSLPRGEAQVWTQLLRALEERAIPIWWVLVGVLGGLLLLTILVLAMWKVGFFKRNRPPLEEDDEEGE
T1 sequence (P05106 27-788): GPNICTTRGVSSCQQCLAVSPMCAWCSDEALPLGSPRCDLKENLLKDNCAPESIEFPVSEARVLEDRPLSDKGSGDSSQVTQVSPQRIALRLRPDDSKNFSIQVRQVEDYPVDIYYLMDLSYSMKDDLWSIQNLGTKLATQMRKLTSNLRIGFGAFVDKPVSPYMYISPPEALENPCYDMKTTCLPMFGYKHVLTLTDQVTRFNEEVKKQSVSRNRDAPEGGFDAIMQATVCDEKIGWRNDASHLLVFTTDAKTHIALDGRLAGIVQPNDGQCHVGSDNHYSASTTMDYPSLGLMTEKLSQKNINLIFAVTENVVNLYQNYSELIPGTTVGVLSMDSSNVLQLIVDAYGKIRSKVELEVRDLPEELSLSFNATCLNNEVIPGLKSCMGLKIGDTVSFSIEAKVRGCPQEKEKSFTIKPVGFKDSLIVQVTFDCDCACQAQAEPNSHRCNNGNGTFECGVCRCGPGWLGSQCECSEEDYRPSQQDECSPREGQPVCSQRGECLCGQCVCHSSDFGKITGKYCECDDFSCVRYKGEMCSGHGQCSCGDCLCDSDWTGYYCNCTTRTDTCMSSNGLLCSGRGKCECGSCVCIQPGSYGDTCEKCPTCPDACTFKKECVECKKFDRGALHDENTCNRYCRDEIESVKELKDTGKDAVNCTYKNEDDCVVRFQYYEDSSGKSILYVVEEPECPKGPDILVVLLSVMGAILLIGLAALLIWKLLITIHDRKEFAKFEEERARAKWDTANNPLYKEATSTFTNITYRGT

Row | Compound | IC50 [1] | IC50 ([2]; concentration causing 50% inhibition of the maximum aggregation, human PRP, ADP final concentration 7 µM, incubated at 37°C for 3 minutes) | IC50 ([2]; Homo sapiens, Platelet, 0.05 h)
1 | 3-[3-(4-amidinobenzoyl)benzamide]propionic acid [Control, reference compound] | 0.0844 µM | 0.105 µM | 
2 | Cc1c(C(=O)NCCC(=O)O)sc(=NC(=O)c2ccc(C(=N)N)cc2)n1C [Compound 5, N-(2-carboxyethyl)-2-(4-amidinobenzoylimino)-3,4-dimetylthiazoline-5-carboxamide hydrobromide] | 0.0051 µM |  | 0.017 µM
3 | CNC(=N)c1ccc(C(=O)N=c2sc(C(=O)NCCC(=O)O)c(C)n2C)cc1 [Compound 7, N-(2-carboxyethyl)-2-[4-(N-methylamidino)benzoylimino]-3,4-dimethyl-3H-thiazoline-5-carboxamide hydrobromide] | 0.0027 µM |  | 
4 | Cc1c(C(=O)NCCC(=O)O)sc(=NC(=O)c2ccc(C(=N)N)cc2)n1Cc1ccccc1 [Compound 17] |  |  | 0.019 µM
5 | CCCCn1c(C)c(C(=O)NCCC(=O)O)sc1=NC(=O)c1ccc(C(=N)N)cc1 [Compound 22] |  |  | 0.018 µM
6 | COC(=O)CCNC(=O)c1sc(=NC(=O)c2ccc(C#N)cc2)n(C(C)C)c1C [Compound 23] | 0.0063 µM |  | 
7 | Cc1c(C(=O)NCCC(=O)O)sc(=NC(=O)c2ccc(C(=N)N)cc2)n1C(C)C [Compound 27] |  |  | 0.015 µM
8 | Cc1c(C(=O)NCCC(=O)O)sc(=NC(=O)c2ccc(C(=N)NCc3ccccc3)cc2)n1C [Compound 29] | 0.0079 µM |  | 0.014 µM
9 | Cc1c(C(=O)NCCC(=O)O)sc(=NC(=O)c2ccc(C(=N)Nc3ccccc3)cc2)n1C [Compound 31, N-(2-carboxyethyl)-2-[4-(N-phenylamidino)benzoylimino]-3,4-dimethyl-3H-thiazoline-5-carboxamide hydrobromide] |  |  | 0.02 µM
10 | Cc1c(C(=O)NCCC(=O)O)sc(=NC(=O)c2ccc(C(=N)N(C)Cc3ccccc3)cc2)n1C [Compound 35, N-(2-carboxyethyl)-2-[4-(N-methyl-N-benzylamidino)benzoylimino]-3,4-dimethyl-3H-thiazoline-5-carboxamide hydrobromide] | 0.001 µM |  | 
11 | Cc1c(C(=O)NCCC(=O)O)sc(=NC(=O)c2ccc(C(=N)N(C)C)cc2)n1C [Compound 37, N-(2-carboxyethyl)-2-[4-(N,N-dimethylamidino)benzoylimino]-3,4-dimethyl-3H-thiazoline-5-carboxamide hydrobromide] | 0.0013 µM |  | 

— patent EP0649843B1, “THIAZOLINE DERIVATIVE” (TAISHO PHARMACEUTICAL CO. LTD, priority 1992, dated 1994)
